Data as given in patent publication US11733243B2, “Use of acamprosate to modulate ERK1/2 activation in animal models for FXS and ASD and individuals diagnosed with FXS and ASD” (Indiana University Research and Technology Corporation, priority 2013, dated 2023).
“And” between values parts separate entries of the source, which are not always exact repeats. Equal entries are not always repeated.

How the values were obtained:
NMDA glutamate receptor = conditions: animal studies; cited from earlier work
[1] = test system: patients diagnosed with FXS; experiment: 10-week open-label trial of acamprosate in youth with FXS: behavioral outcome measures; format: in vivo, human; set-up: key to mean CGI-I at endpoint: CGI-I score: 1 = very much improved, 2 = much improved; conditions: for Aberrant Behavior Checklist-Social Avoidance (ABC-SA), End point (mean ± SD): baseline 3.3 ± 2.6; for Clinical Global Impressions-Severity (CGI-S), End point (mean ± SD): baseline 4.25 ± 0.45; for Clinical Global Impressions-Severity (CGI-S), End point (mean ± SD) / ADHD Rating Scale 4th Edition (ADHD-RS), End point (mean ± SD): p<0.0001; for Aberrant Behavior Checklist-Social Withdrawal (ABC-SW), End point (mean ± SD): baseline 8.8 ± 5.8, p=0.04 (Table 5: 7.33 ± 5.2, p=0.014); for Aberrant Behavior Checklist-Hyperactivity (ABC-H), End point (mean ± SD): baseline 16.8 ± 9.1, p=0.009; for ADHD Rating Scale 4th Edition (ADHD-RS), End point (mean ± SD): baseline 23.6 ± 10.6; for Vineland Adaptive Behavior Scale (VABS) Communication Domain, End point (mean ± SD): baseline 63.4 ± 10.1, p=0.03; for VABS Expressive Communication Subdomain, End point (mean ± SD): baseline 69.8 ± 23.0; for Social Responsiveness Scale total score (SRS), End point (mean ± SD): baseline 91.3 ± 27.4, p=0.005
From the text: The Institutional Review Board (IRB) at an academic medical center approved this study. Thirteen outpatient males and females aged 5 to 17 years with body weight≥15 kg were recruited for this study. Written informed consent was obtained from each participant's legal guardian (parent for all children in this report), and subjects provided assent when able. Diagnosis of FXS was confirmed by Southern Blot and PCR results consistent with a greater than 200 CGG repeat expansion in the fmr1 gene with at least partial gene methylation. Subjects had to be free of other significant medical conditions. The concomitant use of psychotropic drugs that are not thought to impact glutamate neurotransmission were allowed so long as the patients experienced stable dosing at least 4 weeks prior to baseline. Subjects were required to have a mental age of greater than 18 months as determined by the Stanford-Binet 5th Edition. Additional inclusion criteria included a CGI-S (Guy 1976) score of at least 4 (“Moderately Ill”). Subjects with a Diagnostic and Statistical Manual of Mental Disorders, 4th Edition, Text Revision (DSM-IV-TR) diagnosis of a psychotic disorder, bipolar disorder, or substance use disorder were excluded from the study. Additionally, subjects with a positive urine pregnancy test, creatinine clearance of <30, active seizure disorder, or other significant medical condition were excluded.
A 10-week, prospective, open-label study design was chosen to gather pilot data for potential future larger-scale, double-blind, placebo-controlled studies in this population.
All subjects underwent a screening and baseline visit followed by follow-up visits every 2 weeks during the 10-week open-label trial period. At the end of weeks 1, 3, and 5 the investigators called the parent to assess drug tolerability and to make dose adjustments as indicated. All subjects received 333 mg/day of acamprosate during the first week of the study. The investigators then increased the dosage to a maximum of 1,998 mg/day (weight>50 kg) or 1,332 mg/day (weight<50 kg) over the first six weeks of the study, if optimal clinical response (CGI-I equal to 1 “very much improved”) had not occurred and intolerable adverse effects had not emerged. The dose maintenance phase lasted 4 weeks at the optimal dosage.
The CGI-S assessment was administered at screen and at baseline as part of the eligibility criteria described above. In this study, the rater scored the CGI-S in regard to severity of symptoms commonly noted in FXS including, but not limited to, inattention/hyperactivity, social impairment, communication impairment, repetitive behavior, irritability, and anxiety. The CGI-S is rated on a scale from 1 to 7 (1=normal, not ill at all; 2=borderline ill; 3=mildly ill; 4=moderately ill; 5=markedly ill; 6=severely ill; 7=among the most extremely ill patients with FXS). The Autism Diagnostic Observation Schedule (ADOS) (Lord, Rutter et al. 1989) was administered at baseline to characterize potential concomitant ASD diagnosis.
The primary outcome measure was the CGI-I. The CGI-I is a scale designed to assess global change from baseline. […] Treatment response was defined by a CGI-I score of 1 “very much improved” or 2 “much improved.” In this study, the CGI-I was utilized as a general global primary outcome measure given the uncertainty as to what specific symptoms/behaviors associated with FXS may be expected to improve or worsen with use of acamprosate. The CGI-I was administered at all visits after baseline.
Secondary outcome measures included all subscales of the ABC (Irritability, Social Withdrawal, Stereotypy, Hyperactivity, and Inappropriate Speech). The ABC is an informant-rated (primary caregiver) measure with confirmed reliability and validity with regard to factor structure, distribution of scores, and sensitivity to change in persons with developmental disability (Aman, Singh et al. 1985). […]

alcohol intake = conditions: mouse, in vivo; cited from earlier work
[2] = test system: fmr1 (fragile X gene) Knock Out mice; experiment: training/test exploration and P.I. in WT and fmr1 KO mice; format: in vivo; set-up: training left / training right / training Total / test novel / test fam / test total: unit not given here
[3] = test system: leptin, beta endorphin, cortisol; conditions: humans with alcohol dependence; cited from earlier work
[4] = FXS, n=12, 10 weeks, listed as acamprosate
[5] = FXS, mean change from baseline to endpoint divided by SD at baseline

## CC(=O)NCCCS(=O)(=O)O [Acamprosate, 3-Acetamidopropane-1-sulfonic acid]
NMDA glutamate receptor
  action at the NMDA glutamate receptor: bind and act as an antagonist at the NMDA glutamate receptor
[1]; 12 youth with FXS, 10 weeks, mean final dose 1054 mg/day
  Treatment responders (CGI-I score of 1 very much improved or 2 much improved): 75%
[1]; FXS, 10 weeks
  Other subscales of the ABC and the CY-BOCS-PDD: did not change significantly during treatment
  SRS Social Awareness and Autistic Mannerisms subscales: Improvement was not noted
  decline of mean ABC-H score, baseline to endpoint: 35%
  decline of mean ABC-SA score, baseline to endpoint: 51%
  decline of mean ABC-SW score, baseline to endpoint: 53%
  decline of mean ADHD-RS score, baseline to endpoint: 29%
  decline of mean total SRS raw score, baseline to endpoint: 16%
  improvement of mean VABS Communication Domain standard score: 5%
  improvement of mean VABS Expressive Communication score: 13%
  other domains of the VABS: No other changes with treatment were noted
[1]; FXS, 10 weeks, baseline 85.2 ± 32.0, p=0.53
  Peabody Picture Vocabulary Test (PPVT), End point (mean ± SD): did not significantly change with treatment
[1]; FXS, 10 weeks, p=0.003
  decline of SRS Social Motivation subscale: 28%
[1]; FXS, 10 weeks, p=0.01
  decline of SRS Social Cognition subscale: 19%
  decline of SRS Social Communication subscale: 14%
[1]; FXS, Week 10, scale 1-7
  mean CGI-I at endpoint: 1.92 and 1.9
[1]; FXS, n=12, 10 weeks, p=0.01
  Aberrant Behavior Checklist-Social Avoidance (ABC-SA), End point (mean ± SD): 1.6 ± 2.7
[1]; FXS, n=12, 10 weeks, p=0.01, listed as acamprosate
  Aberrant Behavior Checklist-Social Avoidance (ABC-SA), End point (mean ± SD): 1.6
[1]; FXS, n=12, 10 weeks
  Clinical Global Impressions-Severity (CGI-S), End point (mean ± SD): 3.33 ± 0.5 and 3.33 ± 0.49
  Aberrant Behavior Checklist-Social Withdrawal (ABC-SW), End point (mean ± SD): 4.1 ± 6.5
  Aberrant Behavior Checklist-Hyperactivity (ABC-H), End point (mean ± SD): 11.0 ± 8.6
  ADHD Rating Scale 4th Edition (ADHD-RS), End point (mean ± SD): 16.7 ± 8
  Vineland Adaptive Behavior Scale (VABS) Communication Domain, End point (mean ± SD): 66.6 ± 11.2
  Social Responsiveness Scale total score (SRS), End point (mean ± SD): 76.4 ± 26.8 and 76.42 ± 26.8
[1]; [4]
  Clinical Global Impressions-Severity (CGI-S), End point (mean ± SD): 3.33
  Aberrant Behavior Checklist-Social Withdrawal (ABC-SW), End point (mean ± SD): 4.1
  Aberrant Behavior Checklist-Hyperactivity (ABC-H), End point (mean ± SD): 11.0
  ADHD Rating Scale 4th Edition (ADHD-RS), End point (mean ± SD): 16.7
  Vineland Adaptive Behavior Scale (VABS) Communication Domain, End point (mean ± SD): 66.6
  Social Responsiveness Scale total score (SRS), End point (mean ± SD): 76.4
[1]; FXS, n=12, 10 weeks, baseline 5.2 ± 3.5, p=0.61
  Aberrant Behavior Checklist-Inappropriate Speech (ABC-IS), End point (mean ± SD): 4.8 ± 3.4
[1]; FXS, n=12, 10 weeks, baseline 9.9 ± 7.8, p=0.11
  Aberrant Behavior Checklist-Irritability (ABC-I), End point (mean ± SD): 7.0 ± 8.9
[1]; FXS, n=12, 10 weeks, baseline 11.1 ± 2.6, p=0.15
  Children's Yale-Brown Obsessive Compulsive Scale Modified for PDD (CY-BOCS-PDD), End point (mean ± SD): 9.8 ± 4.1
[1]; FXS, n=12, 10 weeks, p=0.003
  VABS Expressive Communication Subdomain, End point (mean ± SD): 78.9 ± 21.2
[1]; FXS, n=12, 10 weeks, p=0.003, listed as acamprosate
  VABS Expressive Communication Subdomain, End point (mean ± SD): 78.9
[1]; [5]
  Effect Size, ABC-H: 0.64
  Effect Size, ABC-SA: 0.64
  Effect Size, ABC-SW: 0.81
  Effect Size, ADHD-RS: 0.65
  Effect Size, CGI-S: 2.0
  Effect Size, SRS total score: 0.54
  Effect Size, VABS Communication Domain: 0.32
  Effect Size, VABS Expressive Communication Subdomain: 0.4
[1]; FXS, mean change from baseline to endpoint divided by SD at baseline, listed as acamprosate
  Effect Size, VABS Communication Domain: 0.3
[1]; youth with FXS, pre-specified indicators of clinical response
  youth judged responders to acamprosate (of those treated): 9 of 12
Alcohol intake
  alcohol intake: reduced alcohol intake
[2]; KO Acam group, KO Sal 0.022521, WT Sal 0.193298
  training P.I. average (mean): 0.06358
[2]; KO Acam group, KO Sal 0.134837, WT Sal 0.167142
  test P.I. average (mean): 0.2684
[2]; KO Acam, individual mice
  test P.I.: 0.3192 and 0.2294 and 0.5255 and 0.2717 and 0.3025 and −0.1161 and 0.3463
  test fam: 24.3 and 40.3 and 28.38 and 28.7 and 32.28 and 47.59 and 30.2
  test novel: 47.09 and 64.3 and 91.23 and 50.11 and 60.28 and 37.69 and 62.2
  test total: 71.39 and 104.6 and 119.61 and 78.81 and 92.56 and 85.28 and 92.4
  training P.I.: 0.1811 and 0.1143 and 0.08976 and −0.105 and 0.1648 and −0.1088 and 0.1088
  training Total: 89.27 and 135.74 and 82.44 and 97.27 and 78.95 and 159.13 (2×)
  training left: 52.72 and 75.63 and 44.92 and 43.53 and 45.98 and 70.91 and 88.22
  training right: 36.55 and 60.11 and 37.52 and 53.74 and 32.97 and 88.22 and 70.91
[3]
  hormone levels: lowers levels of several hormones: leptin, beta endorphin, cortisol
